According to the NIST ThermoML archive (doi:10.1021/je1006357):
Numbers after ± are expanded uncertainties.

Columns and labels:
[1] = refractive index (Na D-line) (dimensionless); details: 101.33 kPa, Liquid, Standard Abbe refractometry
[2] = for viscosity / speed of sound / mass density: 101.33 kPa, Liquid; for viscosity: Capillary tube (Ostwald / Ubbelohde) method; for speed of sound: Pulse-echo method; for mass density: Vibrating tube method; for Normal melting temperature: Crystal, DTA

CCCC[N+]1(CC)CCCC1.CCOS(=O)(=O)[O-] [1-butyl-1-ethylpyrrolidinium ethyl sulfate]
Details | mass density, [2] [kg/m3] | refractive index, [1] | speed of sound, [2] [m/s] | viscosity, [2] [mPa·s]
328.15 K | 1118.72 ± 6.8 | 1.4671 ± 0.0011 | 1602 ± 5.1 | 105.5 ± 3.3
333.15 K | 1115.98 ± 6.8 | 1.46581 ± 0.0011 | 1589.6 ± 5.1 | 82.9 ± 2.4
338.15 K | 1113.02 ± 6.7 | 1.46454 ± 0.0011 | 1577.2 ± 5.1 | 66.8 ± 1.8
343.15 K | 1110.08 ± 6.7 | 1.46315 ± 0.0011 | 1564.9 ± 5.1 | 55.8 ± 1.5

Details | Normal melting temperature [°C]
[2] | 53 ± 2

CC[N+](C)(CC)CC.COS(=O)(=O)[O-] [N,N-diethyl-N-methylethanaminium methyl sulfate]
Details | mass density, [2] [kg/m3] | refractive index, [1] | speed of sound, [2] [m/s] | viscosity, [2] [mPa·s]
308.15 K | 1166.44 ± 7.4 | 1.46191 ± 0.0011 | 1853.5 ± 5.1 | 218.5 ± 9.2
313.15 K | 1163.4 ± 7.4 | 1.46065 ± 0.0011 | 1839.7 ± 5.1 | 165.6 ± 6.3
318.15 K | 1160.36 ± 7.3 | 1.45939 ± 0.0011 | 1826.3 ± 5.1 | 127.7 ± 4.3
323.15 K | 1157.34 ± 7.3 | 1.45812 ± 0.0011 | 1813.1 ± 5.1 | 100.3 ± 3.1
328.15 K | 1154.32 ± 7.2 | 1.45687 ± 0.0011 | 1800 ± 5.1 | 79.7 ± 2.3
333.15 K | 1151.33 ± 7.2 | 1.45561 ± 0.0011 | 1787.1 ± 5.1 | 64 ± 1.7
338.15 K | 1148.34 ± 7.2 | 1.45402 ± 0.0011 | 1774.2 ± 5.1 | 53.42 ± 1.4
343.15 K | 1145.36 ± 7.1 | 1.45283 ± 0.0011 | 1761.5 ± 5.1 | 44.92 ± 1.2

Details | Normal melting temperature [°C]
[2] | 33 ± 2

CCCC[N+]1(C)CCCC1.COS(=O)(=O)[O-] [1-butyl-1-methylpyrrolidinium methyl sulfate]
Details | mass density, [2] [kg/m3] | refractive index, [1] | speed of sound, [2] [m/s] | viscosity, [2] [mPa·s]
298.15 K | 1166.69 ± 7.4 | 1.47308 ± 0.0011 | 1741.6 ± 5.1 | 467.5 ± 26
303.15 K | 1163.58 ± 7.4 | 1.47184 ± 0.0011 | 1727.3 ± 5.1 | 334.9 ± 17
308.15 K | 1160.46 ± 7.3 | 1.47054 ± 0.0011 | 1713.6 ± 5.1 | 245.6 ± 11
313.15 K | 1157.4 ± 7.3 | 1.46924 ± 0.0011 | 1700.3 ± 5.1 | 184.1 ± 7.3
318.15 K | 1154.4 ± 7.2 | 1.46792 ± 0.0011 | 1687.4 ± 5.1 | 139.2 ± 4.9
323.15 K | 1151.42 ± 7.2 | 1.46661 ± 0.0011 | 1674.7 ± 5.1 | 107.8 ± 3.4
328.15 K | 1148.42 ± 7.2 | 1.46536 ± 0.0011 | 1662.2 ± 5.1 | 86.1 ± 2.5
333.15 K | 1145.42 ± 7.1 | 1.46406 ± 0.0011 | 1649.8 ± 5.1 | 69.2 ± 1.9
338.15 K | 1142.44 ± 7.1 | 1.46274 ± 0.0011 | 1637.6 ± 5.1 | 56.4 ± 1.5
343.15 K | 1139.47 ± 7 | 1.46143 ± 0.0011 | 1625.5 ± 5.1 | 46.6 ± 1.3

CCOS(=O)(=O)[O-].CC[N+]1(C)CCCC1 [1-ethyl-1-methylpyrrolidinium ethyl sulfate]
Details | mass density, [2] [kg/m3] | refractive index, [1] | speed of sound, [2] [m/s] | viscosity, [2] [mPa·s]
308.15 K | 1189.67 ± 7.7 | 1.47021 ± 0.0011 | 1750.2 ± 5.1 | 172 ± 6.5
313.15 K | 1186.53 ± 7.7 | 1.46891 ± 0.0011 | 1737.5 ± 5.1 | 134.9 ± 4.7
318.15 K | 1183.41 ± 7.6 | 1.4676 ± 0.0011 | 1725.2 ± 5.1 | 107.5 ± 3.4
323.15 K | 1180.3 ± 7.6 | 1.46632 ± 0.0011 | 1713 ± 5.1 | 86.8 ± 2.5
328.15 K | 1177.22 ± 7.5 | 1.46506 ± 0.0011 | 1701 ± 5.1 | 71.2 ± 1.9
333.15 K | 1174.15 ± 7.5 | 1.46378 ± 0.0011 | 1689.2 ± 5.1 | 59.1 ± 1.6
338.15 K | 1171.11 ± 7.5 | 1.46246 ± 0.0011 | 1677.3 ± 5.1 | 49.5 ± 1.3
343.15 K | 1168.07 ± 7.4 | 1.46116 ± 0.0011 | 1665.7 ± 5.1 | 42 ± 1.1

Details | Normal melting temperature [°C]
[2] | 33 ± 2
